The numbers were not newly measured in patent publication US20060009360A1, “New adjuvant composition” (priority 2004, published 2006), which cites them from elsewhere.

For this data set the following is noted: glyphosate in acid form.

Consider `O=C(O)CNCP(=O)(O)O` [glyphosate, N-(phosphonomethyl)glycine], for which the water solubility result is on record as “about 1.2%”.
